The text below walks through data of US12521439B2, “Methods and materials for modulating Nrf2 pathway” (The General Hospital Corporation, priority 2019, dated 2026).

In one assay the target is T1, bovine catalase (Bos taurus, UniProt P00432).
T1 construct: purchased Sigma-Aldrich
T1 sequence (P00432 1-527): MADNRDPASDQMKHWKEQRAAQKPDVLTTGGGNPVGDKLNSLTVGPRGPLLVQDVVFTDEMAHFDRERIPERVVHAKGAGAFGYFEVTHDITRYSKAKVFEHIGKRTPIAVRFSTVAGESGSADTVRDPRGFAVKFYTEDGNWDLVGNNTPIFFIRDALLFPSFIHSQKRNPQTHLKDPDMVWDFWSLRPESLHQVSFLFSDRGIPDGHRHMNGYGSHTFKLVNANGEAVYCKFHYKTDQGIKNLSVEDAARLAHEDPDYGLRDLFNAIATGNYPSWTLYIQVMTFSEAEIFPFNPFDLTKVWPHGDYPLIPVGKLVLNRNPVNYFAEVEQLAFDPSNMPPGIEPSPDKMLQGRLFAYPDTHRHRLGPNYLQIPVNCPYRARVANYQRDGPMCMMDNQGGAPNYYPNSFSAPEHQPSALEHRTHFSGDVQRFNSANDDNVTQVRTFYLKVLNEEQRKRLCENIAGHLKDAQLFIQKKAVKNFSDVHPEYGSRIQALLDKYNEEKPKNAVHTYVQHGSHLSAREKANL
The assay can be described thus: Differential alkylation mass spectrometry, catalase. In kind it is binding. The procedure: Differential Alkylation for OBT Binding Characterization: 10 μg of bovine catalase (Sigma-Aldrich) were suspended in 100 μl of 50 mM HEPES (pH 8.5)/0.5% SDS and OBT, iodoacetamide (IAA), or N-ethylmaleimide (NEM) was added to a final concentration of 5 mM and the mixtures were incubated for 30 min at RT in the dark before adding IAA to all three reactions to a final concentration of 10 mM in the sample treated with IAA in the first alkylation step, and of 5 mM in the other two samples. Upon incubation at RT for 30 min in the dark dithiothreitol (DTT) was added to all reaction to a final concentration of 20 mM and the reactions were first incubated at RT in the dark for 15 min and then at 56° C. for 30 min. Then, NEM was added to all reactions to a final concentration of 100 mM followed by incubation at RT in the dark for 30 min. The experiments were done in triplicate. Samples were analyzed by mass spectrometry as described below.
Quantitative Proteomics: Cell pellets were lysed in a buffer of 75 mM NaCl, 50 mM HEPES pH 8.5, 10 mM sodium pyrophosphate, 10 mM sodium fluoride, 10 mM β-glycerophosphate, 10 mM sodium orthovanadate, 10 mM PMSF, Roche complete mini EDTA free protease inhibitors (1 tablet per 20 ml), and 3% SDS. Lysis was achieved by passing the suspension through a 21-gauge needle 20 times. Proteins were prepared for proteomics analysis as described previously. […] Twelve fractions were analyzed by multiplexed quantitative proteomics performed on an Orbitrap Fusion mass spectrometer (Thermo Scientifc) using a Simultaneous Precursor Selection (SPS) based MS3 method. […] For the cell line samples only MS3 with an average signal-to-noise value of larger than 40 per reporter ion as well as with an isolation specificity of larger than 0.75 were considered for quantification. […] A two-step normalization of the protein TMT-intensities was performed by first normalizing the protein intensities over all acquired TMT channels for each protein based on the median average protein intensity calculated for all proteins. […]

A further assay concerns the target Keap1 (Homo sapiens, UniProt Q14145). The assay is described as follows: Differential alkylation mass spectrometry, Keap1. In kind it is binding.
In assay [1] the test system is HO1 transcripts in MDA-MB-231 tumors. The assay is described as follows: HO1 mRNA in fat pad breast tumors in vivo. The following applies: 7.5 mg/kg i.p. for four consecutive days. Also noted: species or system mice. How it is done:
Real-time qRT-PCR: Total RNA isolation from cultured cells was performed using RNeasy kit (Qiagen), followed by reverse transcription with OneScript cDNA synthesis Kit (ABM). mRNA expression of different genes was then analyzed by quantitative PCR using PowerUp SYBR Green Master Mix (Applied Biosystems) and performed using a QuantStudio3 real-time PCR system (Applied Biosystems). Primer sequences for HO1, NQO1, TXNRD2 were obtained from the MGH primer bank and were as follows: HO1 Forward, 5′-[…]-3′ and reverse 5′-[…]-3′; NQO1 Forward 5′-[…]-3′ and reverse 5′-[…]-3′ and Txnrd2 forward 5′-[…]-3 and reverse 5′-[…]. Oligonucleotides were synthesized by the CCIB DNA Core Facility at Massachusetts General Hospital. Expression of human GAPDH was used to mRNA normalization and relative mRNA expression was calculated using the comparative Ct method.
In vivo Tumor Models: Animal experiments performed by our laboratory were approved by the Massachusetts General Hospital Subcommittee on Research Animal Care. Female athymic nude mice (6-8 weeks) were used in all studies with the exception of pharmacokinetics analysis. For brain tumors xenograft model, GBM8 cells (1×10^5 cells/mouse) stably expressing Fluc were stereotactically implanted into the left striatum of animals. […] Tumor volumes were measured using a caliper and calculated according to the following formula: volume=(width)^2×length/2. […]

Where [2] appears, read: 2-fold excess of DTT over alkylating reagents.

Chain of Keap1 (Q14145 whole entry, species assumed): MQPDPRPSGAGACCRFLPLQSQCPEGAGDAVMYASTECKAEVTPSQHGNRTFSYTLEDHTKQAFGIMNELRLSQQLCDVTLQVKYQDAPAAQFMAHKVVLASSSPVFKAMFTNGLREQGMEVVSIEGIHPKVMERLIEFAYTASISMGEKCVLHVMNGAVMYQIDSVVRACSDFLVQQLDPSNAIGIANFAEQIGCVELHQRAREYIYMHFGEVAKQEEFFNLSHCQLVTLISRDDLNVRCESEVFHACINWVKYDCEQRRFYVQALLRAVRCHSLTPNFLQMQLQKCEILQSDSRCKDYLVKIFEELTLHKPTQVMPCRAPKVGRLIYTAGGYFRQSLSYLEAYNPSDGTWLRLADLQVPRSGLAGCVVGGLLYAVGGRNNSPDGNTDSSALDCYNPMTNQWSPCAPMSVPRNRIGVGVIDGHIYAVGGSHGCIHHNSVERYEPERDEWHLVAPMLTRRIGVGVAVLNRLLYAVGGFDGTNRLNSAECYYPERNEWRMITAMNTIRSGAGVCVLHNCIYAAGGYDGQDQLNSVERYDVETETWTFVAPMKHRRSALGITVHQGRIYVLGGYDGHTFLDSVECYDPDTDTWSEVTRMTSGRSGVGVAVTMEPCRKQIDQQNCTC

Regarding `COC1=CC(=O)C(O)=C/C1=C/C=C/c1ccccc1` [OBT, (Z)-2-hydroxy-5-methoxy-4-((E)-3-phenylallylidene)cyclohexa-2,5-dien-1-one], on bovine catalase (5 mM OBT, differential alkylation), the “binding to cysteine residues of bovine catalase” value was “binds to all detected peptides with cysteine residues”. Moreover, on bovine catalase (setting [2]), the “binding type at Cys-232 and Cys-460” value is listed as “tight or irreversible binding”; the “binding type at Cys-377” value was “reversible binding”. For the same molecule, on Keap1 (Cys151 BTB domain, Cys434 Kelch domain), the “reversibility of modification at Cys151 and Cys434” value is “partially reversible”. For the same molecule, the “covalent binding to cysteine sites of Keap1” value on Keap1 (differential alkylation) is given as “bind covalently to all identified cysteine sites”. Moreover, in assay [1], the “upregulation of HO1 transcripts in the tumor” value was determined as 7 fold.
